Results as given in patent US9458194B2, “Compounds useful in the treatment and/or care of the skin and their cosmetic or pharmaceutical compositions” (Lubrizol Advanced Materials, Inc., priority 2013, dated 2016).
Where “and” joins values, the source holds several entries; their conditions need not be identical. Equal entries are not always repeated.

Experiments:
Format in all cases: cell-based
[1] = test system: LOXL1; experiment: Immunofluorescence of LOXL1 protein expression in human dermal fibroblasts; details: 0.5 mg/mL, 48 hours, HDFa
Protocol: (§1) In this experiment the number of times that the expression of the proteins fibulin-5 and LOXL1 in human dermal fibroblasts is increased with regard to the basal levels in untreated cells (negative control) when treating the cells with 0.5 mg/ml of the product Ac-L-Asp-L-Val-L-Lys-L-Tyr-OH and it is compared with the effect of Interleukin-1β (IL-1β) at 20 ng/ml and TGF-β at 5 ng/ml (positive controls), which increase an average of 1.5 times and 2 times, respectively, the expression of these proteins, in the same conditions.
Adult human dermal fibroblasts were seeded (HDFa) (2.5×10^3 cells/well) in a 96-well transparent plate, treated with polylysine, and were incubated in complete medium 106 for 72 hours at 37° C. in an atmosphere with 5% CO2. After the incubation, the cells were treated with the different compounds in complete medium 106 for 48 hours at 37° C. in an atmosphere with 5% CO2. As positive controls of increase of the expression of the proteins fibulin-5 and LOXL1, 5 ng/ml of TGF-β and 20 ng/ml of IL-1β were used and as a negative control untreated cells were used, just with complete medium 106. The incubations and the treatments were carried out in quadruplicate for each condition. After the treatment, the levels of expression of both proteins were quantified relatively by using specific fluorescent antibodies, photographic recording by microscopy and subsequent quantification of the fluorescent signal using image processing software, the number of total cells by fluorescent staining of the nuclei (DAPI) and subsequent quantification in the same images. […] 16 hours later all the samples were stained with DAPI (4′,6-Diamidino-2-Phenylindole), fluorescent marker for the staining of nuclei, and the photographic recording was carried out by fluorescence microscopy in a Leica microscope. 2-4 images were taken per condition and per protein and the fluorescent signals were quantified (IOD) corresponding to each protein and the nuclei by means of image analysis software. […]

[2] = test system: human fibulin-5 gene promoter; experiment: Luminescence assay of human fibulin-5 gene promoter activation (Firefly luciferase); details: 16-24 hours
Protocol: (§2) The effect of the compounds of the invention on the activity of the fibulin-5 and LOXL1 promoters was studied and compared to the levels of basal expression of the untreated cells (negative control) and with the effect of Interleukin-1β (IL-1β) in the same conditions.
(§3) Cells from an epithelial cell line doubly transfected with fibulin-5 and LOXL1 human promoters in which the luciferase gene is under the regulatory control of said promoters (4×10^4 cells/well) were seeded in a white plate and in a 96-well transparent plate, both treated with polylysine, and were incubated in Dulbecco's Modified Eagle Medium (DMEM-Glutamax™), with 10% of FBS, 1% Penicillin-Streptomycin (P/S), 1 mg/ml of Geneticin® (G418) and […] at 37° C. in at atmosphere with 5% CO2. After the incubation, the cells were incubated for 6 hours at 37° C. in at atmosphere with 5% CO2 with DMEM without serum. Then, this medium was removed and the cells were treated with different compounds at 0.1 mg/ml, 0.5 mg/ml, 1 mg/ml or 2 mg/mL in DMEM/1% FBS for 16-24 hours. As a positive control to activate the fibulin-5 and LOXL1 promoters 10 ng/ml of IL-1β were used and as a negative control untreated cells were used, just with DMEM/1% FBS. The incubations and treatments were carried out in parallel in the white plate and the transparent plate and in triplicate for each condition. After the treatment, the relative light units per second were determined (RLU/s) in the white plate by means of consecutive quantification of the activities of Firefly luciferase (fibulin-5 promoter) and Renilla luciferase (LOXL1 promoter), and the number of total cells/well in the transparent plate by means of staining with Crystal Violet (CV). To determine the Firefly and Renilla luciferase activities the Dual-Glo Luciferase Assay System kit by Promega was used. The cells were briefly lysed and the Firefly luciferase substrate was added. After incubating for 10 min at 25° C., the RLU/s were quantified by luminescence reader (Lumistar-BMG). Then the Firefly signal was extinguished and the Renilla luciferase substrate was added. After incubating for 5 min at 25° C., the RLU/s were quantified by the same luminescence reader. With regard to the determination of the total number of cells by Crystal Violet, the CV dyes the DNA of the cells and the quantity of dye taken by the cells can be measured in an absorbency reader at 630 nm (Multiskan Ascent). The color obtained is directly proportional to the total number of cells per well. The cells were briefly incubated with 0.05% CV plus 4% Formalin for 20 minutes and after several washes with Milli-Q water, the cells were left to dry for 1-2 hours and then 0.1 M of HCl was added for its immediate reading. The RLU/s of the luciferases corresponding to each promoter were normalized by the average of the total number of cells per condition. Three independent assays with 3 measurements per assay were carried out for Ac-L-Asp-L-Val-L-Lys-L-Tyr-OH at 0.1 mg/mL and 1 mg/mL. 1 assay with 3 measurements was carried out for the other compounds and concentrations.
(§4) The increase in the activity of the promoters with regard to the levels of expression of the negative control was determined.

[3] = test system: fibulin-5; experiment: Immunofluorescence of fibulin-5 protein expression in human dermal fibroblasts; details: 0.5 mg/mL, 48 hours, HDFa
Protocol: as §1
Adult human dermal fibroblasts were seeded (HDFa) (2.5×10^3 cells/well) in a 96-well transparent plate, treated with polylysine, and were incubated in complete medium 106 for 72 hours at 37° C. in an atmosphere with 5% CO2. After the incubation, the cells were treated with the different compounds in complete medium 106 for 48 hours at 37° C. in an atmosphere with 5% CO2. As positive controls of increase of the expression of the proteins fibulin-5 and LOXL1, 5 ng/ml of TGF-β and 20 ng/ml of IL-1β were used and as a negative control untreated cells were used, just with complete medium 106. The incubations and the treatments were carried out in quadruplicate for each condition. After the treatment, the levels of expression of both proteins were quantified relatively by using specific fluorescent antibodies, photographic recording by microscopy and subsequent quantification of the fluorescent signal using image processing software, the number of total cells by fluorescent staining of the nuclei (DAPI) and subsequent quantification in the same images. For the determination of the expression of the proteins fibulin-5 and LOXL1 the cells were washed with PBS 48 hours after the treatments and were fixed with paraformaldehyde. Next, duplicates of each treatment were used to mark separately the fibulin-5 and LOXL1 proteins. For each of the proteins a specific primary monoclonal antibody was used (Abcam). After the primary incubation, the cells were washed with PBS and the secondary marking was carried out with specific fluorescent polyclonal antibodies for each primary antibody. For fibulin-5 an Alexa Fluor® 594 (red) secondary antibody was used and for LOXL1 an Alexa Fluor® 488 (green) secondary antibody was used. 16 hours later all the samples were stained with DAPI (4′,6-Diamidino-2-Phenylindole), fluorescent marker for the staining of nuclei, and the photographic recording was carried out by fluorescence microscopy in a Leica microscope. 2-4 images were taken per condition and per protein and the fluorescent signals were quantified (IOD) corresponding to each protein and the nuclei by means of image analysis software. The fibulin-5 and LOXL1 signals were normalized according to the number of total nuclei for each image. 3 independent assays were carried out.

[4] = test system: human LOXL1 gene promoter; experiment: Luminescence assay of human LOXL1 gene promoter activation (Renilla luciferase); details: 16-24 hours
Protocol: as §2, §3, §4

Ac-L-Asp-L-Val-L-Lys-L-Tyr-OH (Ac-DVKY-OH)
Increase in the expression of the protein LOXL1 with regard to the negative control [1]: 73% and 72.71% | Increase in the activity of the human promoter of the FIBULIN 5 gene with regard to the negative control ([2]; 0.1 mg/mL): 7.46% | Increase in the activity of the human promoter of the FIBULIN 5 gene with regard to the negative control ([2]; 1 mg/mL): 19% and 19.40% | Increase in the activity of the human promoter of the FIBULIN 5 gene with regard to the negative control ([2]; 2 mg/mL): 53.20% | Increase in the expression of the protein fibulin-5 with regard to the negative control [3]: 134% and 133.90% | Increase in the activity of the human promoter of the LOXL1 gene with regard to the negative control ([4]; 0.1 mg/mL): 7.12% | Increase in the activity of the human promoter of the LOXL1 gene with regard to the negative control ([4]; 1 mg/mL): 27% and 27.06% | Increase in the activity of the human promoter of the LOXL1 gene with regard to the negative control ([4]; 2 mg/mL): 10.41%
